Tests used:
Test in all cases: post-emergence herbicidal activity, greenhouse
Type in all cases: in vivo
Morningglory = tested on: Morningglory
Procedure, shortened: (§1)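 Plants grown from seed or perennial propagules in greenhouse soil pans were sprayed at two to three weeks with compound solution or suspension containing about 0.4% emulsifier, at the stated application rates. Injury relative to untreated controls was scored at approximately two and four weeks after treatment on a post-emergence activity index.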

Panicum Spp = details: Table II
Procedure, shortened: as §1

Wheat = details: Table II
Procedure, shortened: as §1

Johnsongrass = details: Table I, 4 WAT
Procedure, shortened: as §1

Yellow Nutsedge = details: Table I, 4 WAT
Procedure, shortened: as §1

Soybean = details: Table II
Procedure, shortened: as §1

Rice = details: Table II
Procedure, shortened: as §1

Canada Thistle = details: Table I, 4 WAT
Procedure, shortened: as §1

Cocklebur = tested on: Cocklebur
Procedure, shortened: as §1

Velvetleaf = tested on: Velvetleaf
Procedure, shortened: as §1

Smartweed = details: Table I, 4 WAT
Procedure, shortened: as §1

Lambsquarters = tested on: Lambsquarters
Procedure, shortened: as §1

Quackgrass = details: Table I, 4 WAT
Procedure, shortened: as §1

Barnyardgrass = tested on: Barnyardgrass
Procedure, shortened: as §1

Crabgrass = details: Table II
Procedure, shortened: as §1

Sorghum = details: Table II
Procedure, shortened: as §1

Hemp Sesbania = details: Table II
Procedure, shortened: as §1

Wild Buckwheat = details: Table II
Procedure, shortened: as §1

Sugar Beet = details: Table II
Procedure, shortened: as §1

Downy Brome = tested on: Downy Brome
Procedure, shortened: as §1

Measured: post-emergence herbicidal activity index

CSSN(CC#N)CP(=O)(Oc1ccccc1)Oc1ccccc1 [VII]
2 (50-74% control): Morningglory; Table I, 4 WAT, 5.6 kg/h | Morningglory; Table I, 4 WAT, 11.2 kg/h | Morningglory; Table II, 2 WAT, 5.6 kg/h | Morningglory; Table II, 4 WAT, 5.6 kg/h | Panicum Spp; 4 WAT, 5.6 kg/h | Wheat; 2 WAT, 5.6 kg/h | Yellow Nutsedge; 5.6 kg/h | Yellow Nutsedge; 11.2 kg/h | Soybean; 2 WAT, 5.6 kg/h | Soybean; 4 WAT, 5.6 kg/h | Cocklebur; Table I, 4 WAT, 5.6 kg/h | Cocklebur; Table II, 2 WAT, 5.6 kg/h | Velvetleaf; Table II, 2 WAT, 5.6 kg/h | Velvetleaf; Table II, 4 WAT, 5.6 kg/h | Smartweed; 5.6 kg/h | Quackgrass; 5.6 kg/h | Barnyardgrass; Table I, 4 WAT, 5.6 kg/h | Sorghum; 2 WAT, 5.6 kg/h | Sorghum; 4 WAT, 1.12 kg/h | Wild Buckwheat; 2 WAT, 5.6 kg/h | Downy Brome; Table I, 4 WAT, 11.2 kg/h
1 (25-49% control): Morningglory; Table II, 2 WAT, 0.28 kg/h | Morningglory; Table II, 2 WAT, 1.12 kg/h | Panicum Spp; 2 WAT, 5.6 kg/h | Wheat; 2 WAT, 0.28 kg/h | Wheat; 2 WAT, 1.12 kg/h | Soybean; 2 WAT, 1.12 kg/h | Soybean; 4 WAT, 1.12 kg/h | Cocklebur; Table II, 2 WAT, 0.28 kg/h | Cocklebur; Table II, 2 WAT, 1.12 kg/h | Cocklebur; Table II, 4 WAT, 1.12 kg/h | Velvetleaf; Table I, 4 WAT, 5.6 kg/h | Velvetleaf; Table I, 4 WAT, 11.2 kg/h | Velvetleaf; Table II, 2 WAT, 1.12 kg/h | Lambsquarters; Table II, 2 WAT, 0.28 kg/h | Lambsquarters; Table II, 2 WAT, 1.12 kg/h | Quackgrass; 11.2 kg/h | Barnyardgrass; Table II, 2 WAT, 1.12 kg/h | Barnyardgrass; Table II, 4 WAT, 1.12 kg/h | Crabgrass; 2 WAT, 0.28 kg/h | Sorghum; 2 WAT, 0.28 kg/h | Sorghum; 2 WAT, 1.12 kg/h | Hemp Sesbania; 2 WAT, 5.6 kg/h | Hemp Sesbania; 4 WAT, 5.6 kg/h | Wild Buckwheat; 2 WAT, 0.28 kg/h | Sugar Beet; 2 WAT, 5.6 kg/h | Sugar Beet; 4 WAT, 5.6 kg/h | Downy Brome; Table II, 2 WAT, 1.12 kg/h | Downy Brome; Table II, 2 WAT, 5.6 kg/h | Downy Brome; Table II, 4 WAT, 5.6 kg/h
0 (0-24% control): Morningglory; Table II, 2 WAT, 0.056 kg/h | Morningglory; Table II, 4 WAT, 1.12 kg/h | Panicum Spp; 2 WAT, 0.056 kg/h | Panicum Spp; 2 WAT, 0.28 kg/h | Panicum Spp; 2 WAT, 1.12 kg/h | Panicum Spp; 4 WAT, 1.12 kg/h | Wheat; 2 WAT, 0.056 kg/h | Wheat; 4 WAT, 1.12 kg/h | Soybean; 2 WAT, 0.056 kg/h | Soybean; 2 WAT, 0.28 kg/h | Rice; 2 WAT, 0.056 kg/h | Rice; 2 WAT, 0.28 kg/h | Rice; 2 WAT, 1.12 kg/h | Rice; 4 WAT, 1.12 kg/h | Cocklebur; Table II, 2 WAT, 0.056 kg/h | Velvetleaf; Table II, 2 WAT, 0.056 kg/h | Velvetleaf; Table II, 2 WAT, 0.28 kg/h | Velvetleaf; Table II, 4 WAT, 1.12 kg/h | Lambsquarters; Table II, 2 WAT, 0.056 kg/h | Lambsquarters; Table II, 4 WAT, 1.12 kg/h | Barnyardgrass; Table II, 2 WAT, 0.056 kg/h | Barnyardgrass; Table II, 2 WAT, 0.28 kg/h | Crabgrass; 2 WAT, 0.056 kg/h | Sorghum; 2 WAT, 0.056 kg/h | Hemp Sesbania; 2 WAT, 0.056 kg/h | Hemp Sesbania; 2 WAT, 0.28 kg/h | Hemp Sesbania; 2 WAT, 1.12 kg/h | Hemp Sesbania; 4 WAT, 1.12 kg/h | Wild Buckwheat; 2 WAT, 0.056 kg/h | Wild Buckwheat; 2 WAT, 1.12 kg/h | Wild Buckwheat; 4 WAT, 1.12 kg/h | Sugar Beet; 2 WAT, 0.056 kg/h | Sugar Beet; 2 WAT, 0.28 kg/h | Sugar Beet; 2 WAT, 1.12 kg/h | Sugar Beet; 4 WAT, 1.12 kg/h | Downy Brome; Table II, 2 WAT, 0.056 kg/h | Downy Brome; Table II, 2 WAT, 0.28 kg/h | Downy Brome; Table II, 4 WAT, 1.12 kg/h
3 (75-99% control): Wheat; 4 WAT, 5.6 kg/h | Johnsongrass; 5.6 kg/h | Rice; 2 WAT, 5.6 kg/h | Rice; 4 WAT, 5.6 kg/h | Cocklebur; Table I, 4 WAT, 11.2 kg/h | Cocklebur; Table II, 4 WAT, 5.6 kg/h | Lambsquarters; Table I, 4 WAT, 5.6 kg/h | Lambsquarters; Table II, 2 WAT, 5.6 kg/h | Barnyardgrass; Table I, 4 WAT, 11.2 kg/h | Barnyardgrass; Table II, 2 WAT, 5.6 kg/h | Barnyardgrass; Table II, 4 WAT, 5.6 kg/h | Crabgrass; 2 WAT, 1.12 kg/h | Crabgrass; 4 WAT, 1.12 kg/h | Sorghum; 4 WAT, 5.6 kg/h | Wild Buckwheat; 4 WAT, 5.6 kg/h | Downy Brome; Table I, 4 WAT, 5.6 kg/h
4 (100% control): Johnsongrass; 11.2 kg/h | Canada Thistle; 5.6 kg/h | Canada Thistle; 11.2 kg/h | Smartweed; 11.2 kg/h | Lambsquarters; Table I, 4 WAT, 11.2 kg/h | Lambsquarters; Table II, 4 WAT, 5.6 kg/h | Crabgrass; 2 WAT, 5.6 kg/h | Crabgrass; 4 WAT, 5.6 kg/h
